Assay results: ChEMBL document CHEMBL2203066 (J Med Chem, 2012)

How the values were obtained:
Influenza A virus [1] = test: Antiviral activity against oseltamivir-resistant Influenza A virus A/WSN/1933/H275Y (pandemic H1N1) infected in MDCK cells assessed as protection against virus-induced cytopathic effect after 48 to 72 hrs by CellTiter 96 aqueous assay; type: functional, organism-based, A/WSN/1933/H275Y(H1N1)
Influenza A virus [2] = test: Antiviral activity against oseltamivir-resistant Influenza A virus A/Hong Kong/2369/09/H275Y(H1N1) infected in MDCK cells assessed as protection against virus-induced cytopathic effect after 48 to 72 hrs by CellTiter 96 aqueous assay; type: functional, organism-based

SMILES | EC50 (Influenza A virus [1]) | EC50 (Influenza A virus [2])
CCC(CC)O[C@@H]1C=C(P(=O)(O)O)C[C@H](NC(=N)N)[C@H]1NC(C)=O | 3.2 µM | 4.6 µM
CCOP(=O)(O)C1=C[C@@H](OC(CC)CC)[C@H](NC(C)=O)[C@@H](N)C1 [TAMIPHOSPHOR MONOETHYL ESTER] | 0.49 µM | 0.44 µM
CCC(CC)O[C@@H]1C=C(P(=O)(O)O)C[C@H](N)[C@H]1NC(C)=O [TAMIPHOSPHOR] | 7.4 µM | 6.55 µM
